In ChEMBL document CHEMBL5329222, “Discovery of novel tubulin CBSI (R)-9k from the indanone scaffold for the treatment of colorectal cancer” (RSC Med Chem, 2023):

Tests used:
SW480 = assay: Growth inhibition of human SW480 cells incubated for 1.5 hrs by MTT assay; assay type: functional, cell-based
Tubulin (Bos taurus) = Tubulin (Bos taurus) (UniProt Q6B856+Q862L2+Q862F3); assay: Inhibition of bovine brain tubulin polymerization at 3 uM measured at 2 to 20 mins by spectrophotometer analysis relative to control; settings: time 2-20 min
HCT-116 [1] = assay: Induction of cell cycle arrest in human HCT-116 cells assessed as accumulation of cells at G2/M phase at 3 uM incubated for 24 hrs by flow cytometry analysis (reference value: 18.25%); assay type: functional
HCT-116 [2] = assay: Induction of cell cycle arrest in human HCT-116 cells assessed as accumulation of cells at G2 phase at 1.5 uM incubated for 24 hrs by flow cytometry analysis (reference value: 18.25%); assay type: functional
HCT-116 [3] = assay: Induction of cell cycle arrest in human HCT-116 cells assessed as accumulation of cells at G2 phase at 3 uM incubated for 24 hrs by flow cytometry analysis (reference value: 18.25%); assay type: functional
HCT-116 [4] = assay: Induction of cell cycle arrest in human HCT-116 cells assessed as accumulation of cells at G2 phase at 6 uM incubated for 24 hrs by flow cytometry analysis (reference value: 18.25%); assay type: functional
HCT-116 [5] = assay: Induction of cell cycle arrest in human HCT-116 cells assessed as accumulation of cells at S phase at 1.5 uM incubated for 24 hrs by flow cytometry analysis (reference value: 3.61%); assay type: functional
HCT-116 [6] = assay: Induction of cell cycle arrest in human HCT-116 cells assessed as accumulation of cells at S phase at 3 uM incubated for 24 hrs by flow cytometry analysis (reference value: 3.61%); assay type: functional
HCT-116 [7] = assay: Induction of apoptosis in human HCT-116 cells assessed as late apoptotic cells at 1.5 uM incubated for 24 hrs by annexin V-FITC/7-AAD staining based flow cytometry analysis (reference value: 1.53%); assay type: functional
HCT-116 [8] = assay: Induction of apoptosis in human HCT-116 cells assessed as late apoptotic cells at 6 uM incubated for 24 hrs by annexin V-FITC/7-AAD staining based flow cytometry analysis (reference value: 1.53%); assay type: functional
HCT-116 [9] = assay: Induction of apoptosis in human HCT-116 cells assessed as necrotic cells at 6 uM incubated for 24 hrs by annexin V-FITC/7-AAD staining based flow cytometry analysis (reference value: 2.46%); assay type: functional
HCT-116 [10] = assay: Inhibition of colony formation in human HCT-116 cells at 0.5 uM incubated for 48 hrs by crystal violet staining based analysis; assay type: functional; settings: HCT-116, 48 h, values are per cent of control
HCT-116 [11] = assay: Inhibition of colony formation in human HCT-116 cells at 1 uM incubated for 48 hrs by crystal violet staining based analysis; assay type: functional; settings: HCT-116, 48 h, values are per cent of control
HCT-116 [12] = assay: Inhibition of cell migration in human HCT-116 cells at 0.5 uM measured for 24 hrs by scratch wound healing assay; assay type: functional
[13] = Potency index, ratio of test compound IC50 to colchicine IC50 for cytotoxicity against human HUVEC cells assessed as inhibition of cell growth incubated 1.5 hrs by MTT assay; assay type: toxicity, cell-based; settings: read-out: Ratio IC50
[14] = molecular target: Voltage-gated inwardly rectifying potassium channel KCNH2 (Homo sapiens, UniProt Q12809); assay: Inhibition of hERG expressed in CHO cells at 40 uM by automated patch clamp analysis; assay type: toxicity, cell-based
Chain of Voltage-gated inwardly rectifying potassium channel KCNH2 (Q12809 whole entry): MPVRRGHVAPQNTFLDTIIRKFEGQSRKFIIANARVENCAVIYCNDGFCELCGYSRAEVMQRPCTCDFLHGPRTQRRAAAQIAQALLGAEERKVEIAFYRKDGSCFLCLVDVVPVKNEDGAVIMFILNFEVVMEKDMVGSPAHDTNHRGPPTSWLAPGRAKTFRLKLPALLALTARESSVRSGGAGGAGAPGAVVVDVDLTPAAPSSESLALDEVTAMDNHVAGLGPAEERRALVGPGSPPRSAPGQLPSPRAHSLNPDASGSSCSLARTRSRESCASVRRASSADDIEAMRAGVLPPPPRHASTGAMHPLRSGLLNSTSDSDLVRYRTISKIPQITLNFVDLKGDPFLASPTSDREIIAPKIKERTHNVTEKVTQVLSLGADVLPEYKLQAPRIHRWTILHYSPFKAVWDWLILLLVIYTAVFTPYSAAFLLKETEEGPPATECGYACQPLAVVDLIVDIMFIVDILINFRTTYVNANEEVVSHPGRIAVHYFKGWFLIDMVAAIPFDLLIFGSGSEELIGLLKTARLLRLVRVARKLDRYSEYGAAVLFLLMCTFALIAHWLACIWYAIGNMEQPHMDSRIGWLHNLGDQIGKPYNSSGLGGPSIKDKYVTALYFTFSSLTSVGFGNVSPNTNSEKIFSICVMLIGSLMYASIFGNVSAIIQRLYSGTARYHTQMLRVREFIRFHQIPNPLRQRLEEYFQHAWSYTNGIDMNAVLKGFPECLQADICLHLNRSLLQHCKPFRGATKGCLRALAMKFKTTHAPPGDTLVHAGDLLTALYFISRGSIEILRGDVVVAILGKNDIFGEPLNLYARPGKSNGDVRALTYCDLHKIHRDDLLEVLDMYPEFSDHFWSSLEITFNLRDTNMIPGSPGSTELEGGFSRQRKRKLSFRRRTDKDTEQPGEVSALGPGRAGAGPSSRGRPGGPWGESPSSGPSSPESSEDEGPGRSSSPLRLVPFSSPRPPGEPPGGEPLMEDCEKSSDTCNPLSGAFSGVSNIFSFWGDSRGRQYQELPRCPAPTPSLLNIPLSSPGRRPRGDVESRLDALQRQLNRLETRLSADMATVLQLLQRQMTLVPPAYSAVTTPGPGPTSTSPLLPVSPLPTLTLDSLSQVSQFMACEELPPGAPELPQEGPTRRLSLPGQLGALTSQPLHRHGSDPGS

CCOc1ccc([C@H]2CC(=O)c3cc(OC)c(OC)c(OC)c32)cc1F
IC50 (SW480): 1.31 µM | inhibition (Tubulin (Bos taurus)): 30% | Activity (HCT-116 [1]): 28.73% | Activity (HCT-116 [2]): 24.4% | Activity (HCT-116 [3]): 28.73% | Activity (HCT-116 [4]): 47.34% | Activity (HCT-116 [5]): 7.57% | Activity (HCT-116 [6]): 6.6% | Activity (HCT-116 [7]): 2.85% | Activity (HCT-116 [8]): 13.77% | Activity (HCT-116 [9]): 4.48% | growth, % of control at 0.5 µM (HCT-116 [10]): 30.8% | growth, % of control at 1 µM (HCT-116 [11]): 1.3% | inhibition at 0.5 µM (HCT-116 [12]): 21% | selectivity ratio at 1.5 h [13]: 35 | IC50 [14]: > 40 µM
